Tests used:
DvH-FDH2 [1] = molecular target: T1, DvH-FDH2 (Nitratidesulfovibrio vulgaris, UniProt Q728X0); assay: PES/DCPIP reduction at […] nm, global fit of full progress curves; assay type: biochemical; settings: in air; 1 mM PES / 93 μM DCPIP; 50 mM Tris pH 8.0; Km calculated from kcat and kcat/Km
T1 construct: gene fdnG-2; heterodimer, W-bis-pyranopterin, Sec, four [4Fe-4S]; Strep-tag II at C-terminus of large subunit, kept; periplasmic, Tat signal peptide on large subunit; homologous expression in DvH JW2127 (all fdh loci deleted), strain CSR21271; aerobic purification; with Formate dehydrogenase, beta (small) subunit, iron-sulfur
T1 sequence (Q728X0 36-1003): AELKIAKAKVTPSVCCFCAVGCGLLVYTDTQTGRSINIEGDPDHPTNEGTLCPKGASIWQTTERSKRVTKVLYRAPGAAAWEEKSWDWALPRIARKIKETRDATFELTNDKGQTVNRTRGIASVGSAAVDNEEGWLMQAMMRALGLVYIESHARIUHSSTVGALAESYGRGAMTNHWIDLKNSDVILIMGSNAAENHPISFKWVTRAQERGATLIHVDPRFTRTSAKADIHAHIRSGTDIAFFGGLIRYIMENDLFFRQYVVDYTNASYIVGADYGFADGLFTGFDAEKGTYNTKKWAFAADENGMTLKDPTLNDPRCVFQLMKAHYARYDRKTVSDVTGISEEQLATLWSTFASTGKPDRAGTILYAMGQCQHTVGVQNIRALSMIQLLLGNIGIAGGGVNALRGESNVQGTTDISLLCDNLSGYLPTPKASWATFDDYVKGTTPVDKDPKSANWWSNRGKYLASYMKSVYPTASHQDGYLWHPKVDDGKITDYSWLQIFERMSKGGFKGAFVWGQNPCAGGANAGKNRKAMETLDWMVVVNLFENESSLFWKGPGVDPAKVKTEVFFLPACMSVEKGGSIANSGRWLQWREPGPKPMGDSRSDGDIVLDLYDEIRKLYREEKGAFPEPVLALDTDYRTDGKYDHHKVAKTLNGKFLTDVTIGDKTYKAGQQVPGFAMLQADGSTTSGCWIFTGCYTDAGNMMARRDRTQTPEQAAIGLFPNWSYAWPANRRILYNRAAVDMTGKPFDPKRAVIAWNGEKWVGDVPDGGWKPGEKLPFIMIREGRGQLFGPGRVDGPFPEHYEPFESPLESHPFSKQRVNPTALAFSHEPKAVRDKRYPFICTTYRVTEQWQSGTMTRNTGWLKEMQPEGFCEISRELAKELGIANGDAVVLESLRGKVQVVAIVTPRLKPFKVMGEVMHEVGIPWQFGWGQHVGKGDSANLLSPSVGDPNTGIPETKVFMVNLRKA
T1 sequence (Q728X1 1-260 partner): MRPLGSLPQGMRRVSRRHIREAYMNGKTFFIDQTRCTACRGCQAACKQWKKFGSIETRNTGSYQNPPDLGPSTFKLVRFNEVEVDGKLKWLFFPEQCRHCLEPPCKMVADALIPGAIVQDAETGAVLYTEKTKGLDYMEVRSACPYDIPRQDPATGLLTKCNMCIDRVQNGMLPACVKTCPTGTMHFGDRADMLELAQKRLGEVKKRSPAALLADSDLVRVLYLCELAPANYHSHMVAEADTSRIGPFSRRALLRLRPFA

DvH-FDH2 [2] = molecular target: T1, DvH-FDH2; assay: PES/DCPIP reduction at […] nm, inhibition of formate oxidation; assay type: biochemical; settings: formate with PES/DCPIP; 50 mM Tris pH 8.0; with and without O2

| inhibition profile (DvH-FDH2 [2]) | Compound | Km (DvH-FDH2 [1]) |
| --- | --- | --- |
| – | O=CO [formate] | 4.5 ± 0.4 µM |
| nitrate is far less effective | O=[N+]([O-])O [nitrate] | – |
